Inhibition and IC50 data for 19 compounds are collected here from US6583180B2, “Glucocorticoid receptor modulators” (Abbott Laboratories, priority 2001, dated 2003).

The target of assay [1] is T1, Human glucocorticoid receptors (Homo sapiens, UniProt P04150).
T1 construct: made in house; host or cells: Sf9 insect cells, recombinant baculovirus (BAC-TO-BAC)
T1 sequence (P04150 1-777): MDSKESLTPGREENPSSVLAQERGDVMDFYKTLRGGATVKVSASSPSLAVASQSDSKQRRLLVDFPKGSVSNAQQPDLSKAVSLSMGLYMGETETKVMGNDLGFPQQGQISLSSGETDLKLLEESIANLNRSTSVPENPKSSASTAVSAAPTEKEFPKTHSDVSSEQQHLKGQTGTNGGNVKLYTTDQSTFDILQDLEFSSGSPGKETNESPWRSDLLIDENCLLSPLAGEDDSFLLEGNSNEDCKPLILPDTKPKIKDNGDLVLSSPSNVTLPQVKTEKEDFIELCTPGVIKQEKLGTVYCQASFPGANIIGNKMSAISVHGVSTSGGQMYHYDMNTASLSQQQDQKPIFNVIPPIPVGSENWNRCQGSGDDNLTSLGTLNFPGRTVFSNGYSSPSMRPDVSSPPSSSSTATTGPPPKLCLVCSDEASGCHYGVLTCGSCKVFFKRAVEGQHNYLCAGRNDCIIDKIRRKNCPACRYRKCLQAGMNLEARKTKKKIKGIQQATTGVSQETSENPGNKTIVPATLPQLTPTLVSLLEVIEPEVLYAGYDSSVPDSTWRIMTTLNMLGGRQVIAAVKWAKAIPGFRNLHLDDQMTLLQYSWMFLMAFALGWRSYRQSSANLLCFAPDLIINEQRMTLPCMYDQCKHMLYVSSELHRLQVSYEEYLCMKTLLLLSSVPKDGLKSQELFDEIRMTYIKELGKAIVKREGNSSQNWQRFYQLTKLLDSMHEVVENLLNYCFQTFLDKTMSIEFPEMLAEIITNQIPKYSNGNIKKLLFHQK
Kind of assay: Radioligand filter binding assay, displacement of 3[H]-dexamethasone from hGR. The settings on record: read-out: GR Binding (% Inhibition at 1.7 μM). An outline of the steps: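 Recombinant hGR extract from baculovirus-infected Sf9 cells (final ~1 nM receptor) incubated with ³H-dexamethasone and test compound dilutions in duplicate, EDTA/phosphate pH 8 buffer with MTG, overnight (15-20 h) at +4° C. Bound label collected on PEI-treated GF/B filters and scintillation-counted; IC50 from four-parameter fit of corrected cpm.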

The target of assay [2] is T2, progesterone receptor (PR) (Homo sapiens, UniProt P06401).
T2 sequence (P06401 1-933): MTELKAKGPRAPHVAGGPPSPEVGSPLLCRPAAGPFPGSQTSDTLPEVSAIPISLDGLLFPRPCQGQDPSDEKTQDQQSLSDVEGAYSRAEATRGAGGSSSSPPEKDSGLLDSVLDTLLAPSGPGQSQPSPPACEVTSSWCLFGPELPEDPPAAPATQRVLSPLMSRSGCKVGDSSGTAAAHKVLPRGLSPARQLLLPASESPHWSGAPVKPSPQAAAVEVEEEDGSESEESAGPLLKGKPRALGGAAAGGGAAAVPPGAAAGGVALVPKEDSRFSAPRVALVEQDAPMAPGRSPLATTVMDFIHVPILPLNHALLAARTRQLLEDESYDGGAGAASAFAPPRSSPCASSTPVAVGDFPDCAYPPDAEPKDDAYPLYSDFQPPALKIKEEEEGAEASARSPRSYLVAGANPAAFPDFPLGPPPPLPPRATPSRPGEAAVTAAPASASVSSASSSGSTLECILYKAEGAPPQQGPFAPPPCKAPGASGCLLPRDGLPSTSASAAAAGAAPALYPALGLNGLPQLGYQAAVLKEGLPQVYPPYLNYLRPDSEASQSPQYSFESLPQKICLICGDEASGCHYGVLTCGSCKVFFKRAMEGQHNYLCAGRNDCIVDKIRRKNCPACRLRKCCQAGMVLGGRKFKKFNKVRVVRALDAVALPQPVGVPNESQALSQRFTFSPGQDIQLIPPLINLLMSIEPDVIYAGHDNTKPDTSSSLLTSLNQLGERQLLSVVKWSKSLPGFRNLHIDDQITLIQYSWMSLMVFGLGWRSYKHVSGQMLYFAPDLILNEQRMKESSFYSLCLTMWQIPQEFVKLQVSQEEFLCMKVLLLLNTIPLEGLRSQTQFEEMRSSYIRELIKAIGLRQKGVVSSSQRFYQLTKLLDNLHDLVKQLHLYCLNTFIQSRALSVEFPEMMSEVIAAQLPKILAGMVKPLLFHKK
The assay can be described thus: Radioligand binding assay for progesterone receptor (similar protocol).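 Further: radioligand binding measured with cytosol preparations containing the human progesterone receptor.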
Excerpt: Methods for Radiolipand Binding Studies with Human Glucocorticoid and Progesterone Receptor Cytosol

pIC50: −log10 of the molar value.

Broadly, the inhibition is the share of the control response that was lost under treatment. As usually defined, the pIC50 is the negative decadic logarithm of the IC50, by convention in mol/L. Low values mean a large IC50, high ones a small IC50. Turning to `Cc1c(NS(C)(=O)=O)cccc1N(Cc1ccccc1)Cc1ccc(Oc2cccc(OCCNS(C)(=O)=O)c2)cc1` [Example 81, N-[2-(3-{4-[(benzyl{2-methyl-3-[(methylsulfonyl)amino]phenyl}amino)methyl]phenoxy}phenoxy)ethyl]methanesulfonamide], the inhibition at 1.7 µM in assay [1] worked out at 96.2%. Further, the pIC50 in assay [2] was 6.21.
The like results for `Cc1c(NS(C)(=O)=O)cccc1N(Cc1ccc(Oc2cccc(OCC(=O)O)c2)cc1)Cc1ccc(Cl)cc1F` [Example 83, (3-{4-[((4-chloro-2-fluorobenzyl){2-methyl-3-[(methylsulfonyl)amino]phenyl}amino)methyl]phenoxy}phenoxy)acetic acid] were, in that order, 98.1% and 6.75.
As to `Cc1c(NS(C)(=O)=O)cccc1N(Cc1ccc(Oc2ccc(CCC(=O)O)cc2)cc1)Cc1ccccc1F` [Example 84, 3-(4-{4-[((2-fluorobenzyl){2-methyl-3-[(methylsulfonyl)amino]phenyl}amino)methyl]phenoxy}phenyl)propanoic acid], in assay [1], the inhibition at 1.7 µM was found to be 97.9%. This compound also had a pIC50 in assay [2] of 6.33.
In the same order, the values of `Cc1c(NS(C)(=O)=O)cccc1N(Cc1ccc(F)cc1)Cc1ccc(Oc2ccc(CCC(=O)O)cc2)cc1` [Example 85, 3-(4-{4-[((4-fluorobenzyl){2-methyl-3-[(methylsulfonyl)amino]phenyl}amino)methyl]phenoxy}phenyl)propanoic acid] are 96.9% and 6.45.
In the same order, the values of `Cc1c(NS(C)(=O)=O)cccc1N(Cc1ccccc1)Cc1ccc(Oc2ccc(CCCCO)cc2)cc1` [Example 101, N-[3-(benzyl{4-[4-(4-hydroxybutyl)phenoxy]benzyl}amino)-2-methylphenyl]methanesulfonamide] are 92.9% and 5.99.
The like results for `Cc1c(NS(C)(=O)=O)cccc1N(Cc1ccccc1)Cc1ccc(Oc2ccc(CCC(=O)NCC(=O)O)cc2)cc1` [Example 104, N-[3-(4-{4-[(benzyl{2-methyl-3-[(methylsulfonyl)amino]phenyl}amino)methyl]phenoxy}phenyl)propanoyl]glycine] were, in that order, 95.7% and 6.23.
As for `Cc1c(NS(C)(=O)=O)cccc1N(Cc1ccccc1)Cc1ccc(Oc2ccc(CCC(=O)NCCC(=O)O)cc2)cc1` [Example 105, N-[3-(4-{4-[(benzyl{2-methyl-3-[(methylsulfonyl)amino]phenyl}amino)methyl]phenoxy}phenyl)propanoyl]-beta-alanine], the inhibition at 1.7 µM in assay [1] amounted to 96.2%. The compound further showed a pIC50 in assay [2] of 6.16.
In the same order, the values of `Cc1c(NS(C)(=O)=O)cccc1N(Cc1ccccc1)Cc1ccc(Oc2ccc(CCC(=O)NCCCC(=O)O)cc2)cc1` [Example 106, 4-{[3-(4-{4-[(benzyl{2-methyl-3-[(methylsulfonyl)amino]phenyl}amino)methyl]phenoxy}phenyl)propanoyl]amino}butanoic acid] are 96% and 5.89.
In the same order, the values of `Cc1c(NS(C)(=O)=O)cccc1N(Cc1ccc(Oc2cccc(OCC(=O)O)c2)cc1)Cc1ccc(F)cc1F` [Example 110, (3-{4-[((2,4-difluorobenzyl){2-methyl-3-[(methylsulfonyl)amino]phenyl}amino)methyl]phenoxy}phenoxy)acetic acid] are 96.5% and 6.67.
In the same order, the values of `Cc1c(NS(C)(=O)=O)cccc1N(Cc1ccccc1)Cc1ccc(Oc2cccc(OC(C)C(=O)O)c2)cc1` (centres unmarked) [Example 111, 2-(3-{4-[(benzyl{2-methyl-3-[(methylsulfonyl)amino]phenyl}amino)methyl]phenoxy}phenoxy)propanoic acid] are 95.3% and 6.11.
For the compound `Cc1c(NS(C)(=O)=O)cccc1N(Cc1ccccc1)Cc1ccc(Oc2cccc(OCC(=O)NCCCN3CCCC3=O)c2)cc1` [Example 114, 2-(3-{4-[(benzyl{2-methyl-3-[(methylsulfonyl)amino]phenyl}amino)methyl]phenoxy}phenoxy)-N-[3-(2-oxopyrrolidin-1-yl)propyl]acetamide], the inhibition at 1.7 µM in assay [1] amounted to 96.7%. Also, in assay [2], the pIC50 was 5.86.
The like results for `COc1ccc(Oc2ccc(CN(Cc3ccc(F)cc3F)c3cccc(NS(C)(=O)=O)c3C)cc2)cc1OC` [Example 141, N-(3-{(2,4-difluorobenzyl)[4-(3,4-dimethoxyphenoxy)benzyl]amino}-2-methylphenyl)methanesulfonamide] were, in that order, 85.4% and 5.09.
For the compound `CC#CCCOc1ccc(CN(Cc2ccc(F)cc2F)c2cccc(NS(C)(=O)=O)c2C)cc1` [Example 143, N-(3-{(2,4-difluorobenzyl)[4-(pent-3-ynyloxy)benzyl]amino}-2-methylphenyl)methanesulfonamide], the inhibition at 1.7 µM in assay [1] was 89.3%. In addition, the negative-log IC50 (pIC50) in assay [2] is less than 5.00.
Take `Cc1c(NS(C)(=O)=O)cccc1N(Cc1ccccc1)Cc1ccc(Oc2ccc(CCC(=O)NCCN3CCOCC3)cc2)cc1` [Example 147, 3-(4-{4-[(benzyl{2-methyl-3-[(metbylsulfonyl)amino]phenyl}amino)methyl]phenoxy}phenyl)-N-(2-morpholin-4-ylethyl)propanamide]: in assay [1], the inhibition at 1.7 µM came to 93.5%. Also, the pIC50 in assay [2] was 5.88.
For `Cc1c(NS(C)(=O)=O)cccc1N(Cc1ccccc1)Cc1ccc(Oc2ccc(CCC(=O)NCCCCCO)cc2)cc1` [Example 149, 3-(4-{4-[(benzyl{2-methyl-3-[(methylsulfonyl)amino]phenyl}amino)methyl]phenoxy}phenyl)-N-(5-hydroxypentyl)propanamide], in assay [1], the inhibition at 1.7 µM came out at 94.7%. Also, the pIC50 in assay [2] is 5.37.
In the same order, the values of `Cc1c(NS(C)(=O)=O)cccc1N(Cc1ccccc1)Cc1ccc(Oc2ccc(CCC(=O)NCCCCO)cc2)cc1` [Example 150, 3-(4-{4-[(benzyl{2-methyl-3-[(methylsulfonyl)amino]phenyl}amino)methyl]phenoxy}phenyl)-N-(4-hydroxybutyl)propanamide] are 94.3% and 5.59.
In the same order, the values of `Cc1c(NS(C)(=O)=O)cccc1N(Cc1ccccc1)Cc1ccc(Oc2ccc(CCC(=O)NCCCO)cc2)cc1` [Example 151, 3-(4-{4-[(benzyl{2-methyl-3-[(methylsulfonyl)amino]phenyl}amino)methyl]phenoxy}phenyl)-N-(3-hydroxypropyl)propanamide] are 94.3% and 6.26.
The like results for `Cc1c(NS(C)(=O)=O)cccc1N(Cc1ccccc1)Cc1ccc(Oc2ccc(CCC(=O)NCCO)cc2)cc1` [Example 152, 3-(4-{4-[(benzyl{2-methyl-3-[(methylsulfonyl)amino]phenyl}amino)methyl]phenoxy}phenyl)-N-(2-hydroxyethyl)propanamide] were, in that order, 94.3% and 6.05.
For the compound `Cc1c(NS(C)(=O)=O)cccc1N(Cc1ccccc1)Cc1ccc(Oc2ccc(CCC(=O)NCCCCCCO)cc2)cc1` [Example 153, 3-(4-{4-[(benzyl{2-methyl-3-[(methlsulfonyl)amino]phenyl}amino)methyl]phenoxy}phenyl)-N-(6-hydroxyhexyl)propanamide], the inhibition at 1.7 µM in assay [1] stood at 91.7%. The compound also had a pIC50 in assay [2] of 6.59.
